{"source": "patent US20090047306A1", "about": "“ADJUVANT COMPOSITIONS” (priority 2004, published 2009)", "molecules": {"B1": {"name": "rIL-12: rIL-12 (R&D Systems, Oxford, UK), recombinant interleukin-12 (protein, UniProt P29459 23-219; P29460 23-328, looked up)", "Interleukin-12 subunit alpha": "RNLPVATPDPGMFPCLHHSQNLLRAVSNMLQKARQTLEFYPCTSEEIDHEDITKDKTSTVEACLPLELTKNESCLNSRETSFITNGSCLASRKTSFMMALCLSSIYEDLKMYQVEFKTMNAKLLMDPKRQIFLDQNMLAVIDELMQALNFNSETVPQKSSLEEPDFYKTKIKLCILLHAFRIRAVTIDRVMSYLNAS", "Interleukin-12 subunit beta": "IWELKKDVYVVELDWYPDAPGEMVVLTCDTPEEDGITWTLDQSSEVLGSGKTLTIQVKEFGDAGQYTCHKGGEVLSHSLLLLHKKEDGIWSTDILKDQKEPKNKTFLRCEAKNYSGRFTCWWLTTISTDLTFSVKSSRGSSDPQGVTCGAATLSAERVRGDNKEYEYSVECQEDSACPAAEESLPIEVMVDAVHKLKYENYTSSFFIRDIIKPDPPKNLQLKPLKNSRQVEVSWEYPDTWSTPHSYFSLTFCVQVQGKSKREKKDRVFTDKTSATVICRKNASISVRAQDRYYSSSWSEWASVPCS"}}, "key": {"[1]": {"tested_on": "OVA-specific IgG1 and IgG2a", "experiment": "OVA-specific IgG1 and IgG2a plasma antibody titres (ELISA) after immunization with OVA/alum with or without alkaloid", "type": "in vivo, mice (BALB/c)", "description": "Alhydrogel (alum; purchased from Superfos BioSector a/s, Vedbaek, Denmark) was mixed with a predetermined quantity of highly purified ovalbumin (OVA; Worthington Biochemical Corporation, Lakewood, N.J.) with or without 3,7-diepi-casuarine.\n(§1) All mice (BALB/c) were immunized subcutaneously into the foodpad with 100 μg OVA in 50 μl phosphate-buffered saline (PBS) mixed with alum and either PBS (control) or 3,7-diepi-casuarine (50 μg in PBS). Boosting inoculations were performed in the same fashion 2 weeks later, into the contralateral footpad.\nBlood samples (tail bleeds) were taken 3 weeks after the primary inoculation. Enzyme-linked immunosorbent assays (ELISA) were performed as described in Brewer et al. (1999) J Immunol 163:6448-54 to detect OVA-specific IgG1 and IgG2a in plasma. Results were expressed as end-point dilutions where the end-point is determined as the final plasma dilution, which yields a higher absorbance than a negative control plasma sample, included in the assay."}, "[2]": {"tested_on": "Murine interferon-γ (IFN-γ)", "experiment": "IFN-γ production by spleen cells of inoculated mice re-stimulated with OVA in vitro (ELISA)", "type": "cell-based, mice (BALB/c)", "conditions": "cells from mice inoculated with alum/OVA plus 50 μg compound vs alum/OVA alone (control); FIG. 2", "description": "as §1\nThe mouse spleen was removed aseptically and placed in a sterile petri dish containing 5 mls of complete medium (RPMI, 1% L-Glutamine, 1% Penicillin/Streptomycin and 10% foetal calf serum). Cells suspensions were prepared by using the end of a syringe and grinding the spleen through a wire mesh. The cell suspension was then centrifuged at 1000 rpm for 5 minutes. To remove the erythrocytes, the cell pellet was resuspended in Boyle's solution (Tris 0.17M & Ammonium Chloride 0.16M) and centrifuged again for 5 minutes. The pellet was then washed in medium a further two times, then resuspended in 3 ml medium. A cell count was then carried out. Stimulation assays were performed in triplicate in U-bottomed 96-well plates (Corning Costar, N.Y.) with OVA (at 5 μg/ml, 100 μg/ml and 500 μg/ml).\nMurine interferon-γ (IFN-γ) was assayed by ELISA using paired antibodies according to the manufacturer's instructions."}, "[3]": {"tested_on": "influenza vaccine-specific IgG, IgG1 and IgG2a", "parameters": "species or system Balb/c mice", "conditions": "mouse, in vivo"}, "α-glucosidase": {"tested_on": "α-glucosidase", "conditions": "cited from earlier work"}, "glycosidase": {"tested_on": "glycosidase", "conditions": "cited from earlier work"}, "α-mannosidase": {"tested_on": "α-mannosidase", "conditions": "cited from earlier work"}, "[4]": {"tested_on": "alum-induced Th1/Th2 response", "experiment": "Effect of exogenous rIL-12 on alum-induced Th1/Th2 responses (Example 1 repeated, lymph node cultures)", "type": "in vivo, mice (BALB/c)", "conditions": "1 μg rIL-12 in place of 3,7-diepi-casuarine; IFN-γ on lymph node cultures", "description": "The experiment described in Example 1 (above) was repeated, but with the 3,7-diepi-casuarine replaced with 1 μg of rIL-12 (R&D Systems, Oxford, UK). Proliferative response assays of IFN-γ were performed on lymph node cultures rather than spleen cells (as described in Pollock et al. (2003) Immunology 108:137-143)."}}}
{"molecule": "OC[C@H]1[C@@H](O)[C@H](O)[C@H]2[C@@H](O)[C@@H](O)CN21", "note": "[3,7-diepi-casuarine, (1R,2R,3S,6S,7R,7aR)-3-(hydroxymethyl)-1,2,6,7-tetrahydroxypyrrolizidine]", "values": [{"measurement": "shift of the alum-induced Th2 response towards Th1", "setting": "[1]; 50 μg in admixture with alum/OVA, vs alum/OVA alone", "value": "pronounced shift towards a Th1 response"}, {"measurement": "antigen-specific (OVA) IgG2a in plasma", "setting": "[1]; BALB/c mice, s.c. footpad, 100 μg OVA with alum, with or without 50 μg 3,7-diepi-casuarine, bleed at 3 weeks, FIG. 1b", "value": "significant increase"}, {"measurement": "IFN-γ produced by spleen cells re-stimulated with antigen in vitro", "setting": "[2]", "value": "significantly greater amount"}, {"measurement": "adjuvant activity", "setting": "[3]", "value": "exhibits adjuvant activity"}, {"measurement": "dose response of the antibody responses", "setting": "[3]", "value": "No dose response"}, {"measurement": "influenza vaccine-specific IgG1 response vs control group vaccinated with influenza vaccine alone", "setting": "[3]", "value": "statistically significant increased"}, {"measurement": "influenza vaccine-specific IgG2a response vs control group A", "setting": "[3]", "value": "No differences"}, {"measurement": "influenza vaccine-specific IgGtotal response vs control group A", "setting": "[3]", "value": "statistically significant increased"}, {"measurement": "skewing of the Th1/Th2 response from Th2 towards Th1", "setting": "[3]", "value": "No skewing"}]}
{"molecule": "O[C@H]1[C@H](O)[C@@H](O)CN2CC[C@H](O)[C@H]12", "note": "[castanospermine]", "values": [{"measurement": "inhibition of α-glucosidase", "setting": "α-glucosidase", "value": "potent"}]}
{"molecule": "O[C@H]1[C@H]2[C@H](O)CCN2C[C@H]1O", "note": "[compound 7, (1S, 2R, 7R, 7aR)-1,2,7-trihydroxy]", "values": [{"measurement": "glycosidase inhibitory activity relative to swainsonine", "setting": "glycosidase", "value": "much weaker inhibitory activity"}]}
{"molecule": "O[C@H]1[C@H]2[C@@H](O)CCN2C[C@H]1O", "note": "[compound 8]", "values": [{"measurement": "glycosidase inhibitory activity relative to swainsonine", "setting": "glycosidase", "value": "much weaker inhibitory activity"}]}
{"molecule": "O[C@H]1[C@H]2[C@H](O)CCCN2C[C@H]1O", "note": "[swainsonine]", "values": [{"measurement": "inhibition of α-mannosidase", "setting": "α-mannosidase", "value": "potent and specific inhibitor"}]}
{"molecule": "B1", "values": [{"measurement": "effect on the alum-induced Th1/Th2 response", "setting": "[4]", "value": "comparable effect to 3,7-diepi-casuarine"}]}
